Reference: ChEMBL document CHEMBL1133858, “BMS-196085: a potent and selective full agonist of the human beta(3) adrenergic receptor” (Bioorg Med Chem Lett, 2001)

Legend:
[1] = molecular target: T1, Beta-3 adrenergic receptor (Homo sapiens, UniProt P13945); test: Agonist activity was assessed by measurement of cAMP accumulation levels in CHO membranes expressing human beta-3 receptor; format: functional, cell membranes
Target sequence in this assay (P13945 whole entry, looked up): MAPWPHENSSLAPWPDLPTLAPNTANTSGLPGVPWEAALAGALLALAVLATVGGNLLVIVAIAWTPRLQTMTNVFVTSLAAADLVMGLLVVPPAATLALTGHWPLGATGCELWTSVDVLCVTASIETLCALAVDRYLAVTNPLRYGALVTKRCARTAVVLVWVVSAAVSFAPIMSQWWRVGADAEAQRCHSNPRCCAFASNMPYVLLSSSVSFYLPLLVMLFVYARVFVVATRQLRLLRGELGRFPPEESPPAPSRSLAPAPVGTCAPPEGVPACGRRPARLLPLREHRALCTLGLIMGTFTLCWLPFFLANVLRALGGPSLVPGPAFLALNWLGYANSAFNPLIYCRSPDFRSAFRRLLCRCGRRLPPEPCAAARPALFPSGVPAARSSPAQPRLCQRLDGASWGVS

[2] = system: ADRB2+ADRB3 (+); test: Tested for binding selectivity to beta3 adrenoceptor versus beta2 adrenoceptor
[3] = system: ADRB1+ADRB3 (+); test: Tested for binding selectivity to beta3 adrenoceptor versus beta-1 adrenoceptor
[4] = molecular target: T1, Beta-3 adrenergic receptor; test: Binding affinity to CHO cells expressing the cloned human beta-3 adrenergic receptor in the presence of [125I]iodocyanopindolol; format: cell-based
Target sequence in this assay (P13945 whole entry): as the sequence (P13945 whole entry, looked up) above

[5] = molecular target: Beta-1 adrenergic receptor (Cavia porcellus) (UniProt B0FL73); test: Beta1 receptor intrinsic activity is given as a percent of the maximal increase in the beating rate of an isolated spontaneously beating guinea pig atrium induced by isoproterenol; format: functional, tissue-based; conditions: Cardiac atrium
[6] = Tested for Lowest dose required to produce tachycardia divided by effective dose for lipolysis african green monkey 30 min after iv administration; format: functional, Cercopithecidae
[7] = Tested for Lowest dose required to produce change in plasma potassium level divided by effective dose for lipolysis african green monkey 30 min after iv administration; format: functional, Cercopithecidae
[8] = In vivo effective dose for lipolysis in african monkeys after iv administration; format: functional; conditions: Cercopithecidae
[9] = Tested for lowest dose required to produce change in plasma potassium level divided by effective dose for lipolysis african green monkey 30 min after iv administration; format: functional, Cercopithecidae
[10] = Tested for half life upon iv administration to african green monkey; format: ADME, organism-based; conditions: cercopithecidae, in vivo
[11] = Lowest dose required to produce statistically significant tachycardia divided by ED50 for lipolysis in african green monkeys after 30 min (iv); format: functional, Cercopithecidae
[12] = Tested for Clearance upon iv administration to african green monkey; format: ADME, organism-based; conditions: cercopithecidae, in vivo
[13] = molecular target: Beta-3 adrenergic receptor (Mus musculus, UniProt P25962); test: Tested for binding affinity to murine Beta-3 adrenergic receptor
[14] = Lowest dose required to produce statistically significant hypokalemia divided by ED50 for lipolysis in african green monkeys after 30 min (iv); format: functional, Cercopithecidae
[15] = Dose that produced tachycardia in african green monkeys after iv administration; format: functional, Cercopithecidae
[16] = Tested for volume of distribution upon iv administration to african green monkey; format: ADME, organism-based; conditions: cercopithecidae, in vivo
[17] = molecular target: Beta-1 adrenergic receptor (Homo sapiens) (UniProt P08588); test: Tested for Intrinsic activity (IA) against adenylate cyclase in CHO cells transfected with human beta-1 adrenoceptor; format: functional, cell-based
[18] = molecular target: Beta-2 adrenergic receptor (Homo sapiens) (UniProt P07550); test: Tested for Intrinsic activity (IA) against adenylate cyclase in CHO cells transfected with human beta-2 adrenoceptor; format: functional, cell-based
[19] = Oral systemic bioavailability […] to african green monkey; format: ADME, organism-based; conditions: cercopithecidae, in vivo, read-out: Bioavailabiility
[20] = organism: Homo sapiens; test: Transdermal flux across human cadaver skin; format: functional
[21] = molecular target: T1, Beta-3 adrenergic receptor; test: Human beta-3 receptor agonist activity was assessed by measurement of cAMP accumulation levels in CHO cells expressing human beta-3 receptor; format: functional, cell-based
Target sequence in this assay (P13945 whole entry, looked up): as above

Beta-1 adrenergic receptor (Cavia porcellus), sequence (B0FL73 1-467): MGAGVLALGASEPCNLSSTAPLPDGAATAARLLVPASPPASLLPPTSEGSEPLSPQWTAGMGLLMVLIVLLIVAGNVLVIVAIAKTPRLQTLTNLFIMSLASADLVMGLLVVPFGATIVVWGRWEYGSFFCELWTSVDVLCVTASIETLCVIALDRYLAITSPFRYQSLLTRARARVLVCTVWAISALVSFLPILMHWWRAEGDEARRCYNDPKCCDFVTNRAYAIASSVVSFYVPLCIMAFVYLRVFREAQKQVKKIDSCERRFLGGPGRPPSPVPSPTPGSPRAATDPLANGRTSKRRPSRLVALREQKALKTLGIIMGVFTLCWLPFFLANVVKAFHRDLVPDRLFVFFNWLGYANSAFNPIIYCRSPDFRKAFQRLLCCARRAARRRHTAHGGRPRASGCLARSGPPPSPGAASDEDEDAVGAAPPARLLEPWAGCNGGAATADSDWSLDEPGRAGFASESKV
Beta-3 adrenergic receptor (Mus musculus, UniProt P25962), sequence (P25962 whole entry): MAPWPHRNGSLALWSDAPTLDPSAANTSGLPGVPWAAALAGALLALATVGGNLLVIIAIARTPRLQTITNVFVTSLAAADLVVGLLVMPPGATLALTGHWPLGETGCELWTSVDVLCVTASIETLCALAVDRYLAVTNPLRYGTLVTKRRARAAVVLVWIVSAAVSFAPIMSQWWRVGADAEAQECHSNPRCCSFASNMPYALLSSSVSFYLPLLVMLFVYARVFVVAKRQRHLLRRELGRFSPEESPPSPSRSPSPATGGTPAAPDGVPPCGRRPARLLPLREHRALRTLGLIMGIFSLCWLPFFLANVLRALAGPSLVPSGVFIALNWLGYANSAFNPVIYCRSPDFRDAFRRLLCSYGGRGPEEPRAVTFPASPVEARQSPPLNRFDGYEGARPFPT
Beta-2 adrenergic receptor (Homo sapiens), sequence (P07550 whole entry, looked up): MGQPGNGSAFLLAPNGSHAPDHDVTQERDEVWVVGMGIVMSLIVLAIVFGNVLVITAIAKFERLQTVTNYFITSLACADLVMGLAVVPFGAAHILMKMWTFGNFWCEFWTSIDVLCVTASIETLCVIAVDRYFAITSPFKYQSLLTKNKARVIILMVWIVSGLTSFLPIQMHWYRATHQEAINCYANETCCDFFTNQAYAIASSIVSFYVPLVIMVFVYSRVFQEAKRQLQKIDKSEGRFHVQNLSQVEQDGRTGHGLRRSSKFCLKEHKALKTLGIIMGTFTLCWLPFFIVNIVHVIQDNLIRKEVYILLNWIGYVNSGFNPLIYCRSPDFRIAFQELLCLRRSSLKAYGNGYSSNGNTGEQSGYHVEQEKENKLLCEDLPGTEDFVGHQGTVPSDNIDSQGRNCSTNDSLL
Beta-1 adrenergic receptor (Homo sapiens), sequence (P08588 whole entry, looked up): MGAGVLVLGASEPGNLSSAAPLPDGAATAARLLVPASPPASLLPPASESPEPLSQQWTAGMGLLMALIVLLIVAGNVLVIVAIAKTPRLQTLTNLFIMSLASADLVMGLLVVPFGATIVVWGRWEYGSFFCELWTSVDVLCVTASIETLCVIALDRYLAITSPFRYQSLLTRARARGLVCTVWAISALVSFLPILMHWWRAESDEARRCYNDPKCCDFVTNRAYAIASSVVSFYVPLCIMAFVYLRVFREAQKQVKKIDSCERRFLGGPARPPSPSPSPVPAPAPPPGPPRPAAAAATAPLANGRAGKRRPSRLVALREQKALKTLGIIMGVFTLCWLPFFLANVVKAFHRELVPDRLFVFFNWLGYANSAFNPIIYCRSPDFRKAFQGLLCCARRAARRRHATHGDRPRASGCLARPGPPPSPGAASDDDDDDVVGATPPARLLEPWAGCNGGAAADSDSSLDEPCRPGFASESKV

Compound | Intrinsic activity [1] | Selectivity ratio [2] | Selectivity ratio [3] | Ki [4] | also measured
CS(=O)(=O)Nc1cc([C@@H](O)CN[C@H](Cc2ccccc2)c2ccc(OC(F)F)c3ccccc23)ccc1O | 100% | 9 | 275 | 0.002 µM | Activity [5]: 23%; Margin before onset of tachycardia [6]: 2; Margin before onset of hypokalemia [7]: 2; ED50 [8]: 0.25 mg/kg
CS(=O)(=O)Nc1cc([C@@H](O)CN[C@H](Cc2ccccc2)c2cccc3ccccc23)ccc1O | 105% | 6 | 33 | 0.043 µM | Margin before onset of hypokalemia [9]: 2; Activity [5]: 40%; Margin before onset of tachycardia [6]: 2; ED50 [8]: 0.25 mg/kg
C[C@](Cc1ccccc1)(NC[C@H](O)c1ccc(O)c(NS(C)(=O)=O)c1)c1ccc(OC(F)F)cc1 | – | 14 | 12 | 0.009 µM | –
Cc1cc([C@@H](Cc2ccccc2)NC[C@H](O)c2ccc(O)c(NS(C)(=O)=O)c2)ccc1OC(F)F | – | – | – | 0.069 µM | –
CN(C)C(=O)c1ccc([C@@H](Cc2ccccc2)NC[C@H](O)c2ccc(O)c(NS(C)(=O)=O)c2)cc1 | 98% | 0.4 | 25 | 0.8 µM | –
COC(=O)c1ccc([C@@H](Cc2ccccc2)NC[C@H](O)c2ccc(O)c(NS(C)(=O)=O)c2)cc1 | 98% | – | – | 0.085 µM | –
CS(=O)(=O)Nc1cc([C@@H](O)CN[C@H](Cc2ccccc2)c2ccc(OC(F)F)c(OC(F)F)c2)ccc1O | – | 0.4 | 37 | 0.038 µM | –
CS(=O)(=O)Nc1cc(C(O)CNC(Cc2ccccc2)c2ccsc2)ccc1O (stereo unspecified) | 110% | 0.3 | 1 | 0.129 µM | –
CS(=O)(=O)Nc1cc(C(O)CNC(Cc2ccccc2)c2ccc3sccc3c2)ccc1O (stereo unspecified) | 90% | 2 | 19 | 0.23 µM | –
CS(=O)(=O)Nc1cc(C(O)CNC(Cc2ccccc2)c2nccs2)ccc1O (stereo unspecified) | 45% | 0.6 | 4 | 2.4 µM | –
COc1ccc([C@@H](Cc2ccccc2)NC[C@H](O)c2ccc(O)c(NS(C)(=O)=O)c2)c(OC)n1 | 94% | – | – | 0.015 µM | Activity [5]: 60%
CS(=O)(=O)Nc1cc([C@@H](O)CNC(Cc2ccccc2)c2ccc(OCc3ccccc3)cc2)ccc1O (stereo partly specified) | – | – | – | 0.07 µM | –
CS(=O)(=O)Nc1cc([C@@H](O)CNC(Cc2ccccc2)c2ccc(Oc3ccccc3)cc2)ccc1O (stereo partly specified) | – | 0.5 | 4 | 0.99 µM | –
CS(=O)(=O)Nc1cc(C(O)CNC(Cc2ccccc2)c2ccncc2)ccc1O (stereo unspecified) | 129% | 8 | 30 | 0.7 µM | –
COc1ccc([C@@H](Cc2ccccc2)NC[C@H](O)c2ccc(O)c(NS(C)(=O)=O)c2)c2ccccc12 | 85% | 9 | 46 | 0.026 µM | Activity [5]: 22%
CS(=O)(=O)Nc1cc([C@@H](O)CNC(Cc2ccccc2)c2ccc(OCC(F)(F)F)cc2)ccc1O (stereo partly specified) | – | 1 | 83 | 0.084 µM | –
CS(=O)(=O)Nc1cc(C(O)CNC(Cc2ccccc2)c2ccccc2)ccc1O (stereo unspecified) | – | 3 | 15 | 0.36 µM | Intrinsic activity [21]: 133%
COc1ccc([C@@H](Cc2ccccc2)NC[C@H](O)c2ccc(O)c(NS(C)(=O)=O)c2)cn1 | 101% | 30 | 180 | 0.025 µM | Activity [5]: 70%
CS(=O)(=O)Nc1cc([C@@H](O)CN[C@H](Cc2ccccc2)c2ccc3c(c2)OCO3)ccc1O | 94% | 8 | 52 | 0.008 µM | Margin before onset of hypokalemia [9]: 2; Activity [5]: 80%; Margin before onset of tachycardia [6]: 1; Dose [15]: 0.1 mg/kg; ED50 [8]: 0.02 mg/kg

Further lines, with some results ahead:

Intrinsic activity [1] | Selectivity ratio [2] | Selectivity ratio [3] | Ki [4] | Compound | also measured
123% | 6 | 17 | 8.6 µM | CS(=O)(=O)Nc1cc([C@@H](O)CN[C@H](Cc2ccccc2)c2ccc(C(=O)O)cc2)ccc1O | –
106% | 4 | 537 | 0.147 µM | CS(=O)(=O)Nc1cc([C@@H](O)CN[C@H](Cc2ccccc2)c2ccc(C(=O)NO)cc2)ccc1O | –
95% | 5 | 36 | 0.021 µM | CS(=O)(=O)Nc1cc([C@@H](O)CN[C@H](Cc2ccccc2)c2ccc(OC(F)F)cc2)ccc1O | half-life [10]: 7.3 h; Activity [5]: 45%; Margin before onset of tachycardia [11]: 5; clearance [12]: 36 mL/min/kg; Ki [13]: 4 µM; Margin before onset of hypokalemia [14]: 25; Dose [15]: 0.1 mg/kg; Vd [16]: 10 L/kg; Intrinsic activity [17]: 63%; Intrinsic activity [18]: 45%; bioavailability [19]: 5%; ED50 [8]: 0.02 mg/kg; Activity [20]: 12 ug cm**-2 hr-1
100% | – | – | 0.836 µM | CS(=O)(=O)Nc1cc(C(O)CNC(Cc2ccccc2)c2ccc(F)cc2)ccc1O (stereo unspecified) | –
107% | 4 | 30 | 0.21 µM | CS(=O)(=O)Nc1cc([C@@H](O)CN[C@H](Cc2ccccc2)c2ccc(C#N)cc2)ccc1O | –
129% | 3 | 53 | 0.44 µM | CS(=O)(=O)Nc1cc(C(O)CNC(Cc2ccccc2)c2ccc(S(C)(=O)=O)cc2)ccc1O (stereo unspecified) | –
106% | 2 | 17 | 0.074 µM | CS(=O)(=O)Nc1cc([C@@H](O)CN[C@H](Cc2ccccc2)c2ccc(CC(N)=O)cc2)ccc1O | –
108% | – | – | 0.07 µM | CS(=O)(=O)Nc1cc([C@@H](O)CN[C@H](Cc2ccccc2)c2ccc(C(N)=O)cc2)ccc1O | –
– | 2 | 25 | 0.21 µM | CS(=O)(=O)Nc1cc([C@@H](O)CNC(Cc2ccccc2)c2ccc(OC(F)(F)F)cc2)ccc1O (stereo partly specified) | –
102% | 3 | 79 | 0.12 µM | CNC(=O)c1ccc([C@@H](Cc2ccccc2)NC[C@H](O)c2ccc(O)c(NS(C)(=O)=O)c2)cc1 | –
